Patent US8304440B2, “Combination of a bis-thiazolium salt or a precursor thereof and artemisinin or a derivative thereof for treating acute malaria” (Sanofi, priority 2008, dated 2012)

Test system: Plasmodium vinckei petteri (strain 279 BY)
Test: In vivo measurement of the antimalarial activity in mice infected with Plasmodium vinckei petteri (4-day ip treatment)
Design: species or system Plasmodium vinckei petteri in female Swiss mice
Description: • ED50=dose in mg/kg/day which brings about a 50% decrease in parasitaemia, observed in the infected mice, • ED90=dose in mg/kg/day which brings about a 90% decrease in parasitaemia, observed in the infected mice, • ip=intraperitoneal administration, • iv=intravenous administration, • ir=intrarectal administration.
On day 0 (D0), female “Swiss” mice (OF1, 22-26 g) (Charles River Laboratories France, 59 rue de la Paix, 76410 Saint-Aubin-les-Elbeuf) are inoculated, by iv injection in the caudal vein, with 10^8 parasitized erythrocytes suspended in 200 μl of NaCl (0.9%). The parasites used are of Plasmodium vinckei petteri type (strain 279 BY, supplied by Dr. I Landau, Paris, France).
The injection of 10^8 parasitized erythrocytes results, at day 1 (D1), in a parasitemia level of between 5% and 10% (7.2%±0.2%). The Plasmodium vinckei petteri strain is maintained by weekly infection in mice with 10^7 to 10^8 parasitized erythrocytes suspended in a saline phosphate buffer (0.9%) (infection by intraperitoneal administration).
The products are dissolved in a 0.3M phosphate buffer (pH=8.1). The final concentration of the T3 solution is between 40 and 200 mg/l depending on the dose. The final concentration of the artesunate solution is between 100 and 500 mg/l depending on the dose. The products are administered ip. The administration volume is of the order of 100 μl, but depends on the weight of the mouse.
The mice are treated once a day for 4 days, on days D1, D2, D3 and D4 (Peters, W., J. H. Portus, and B. L. Robinson. 1975. The chemotherapy of rodent malaria. XXII. The value of drug-resistant strains of P. berghei in screening for blood schizonticidal activity. Ann. Trop. Med. Parasitol. 69:155-171; and: Ancelin M L, Calas M., Bonhoure A., Herbute S, and Vial H., In vivo antimalarial activity of mono and bis quaternary ammonium salts interfering with Plasmodium phospholipid metabolism. Antimicrob. Agents Chemother., 2003, 47, 2598-2605). Four mice are used per dose.
The animal is given, by ip administration, according to the case, T3, artesunate or the mixture of the two active ingredients solubilized.
At the 5th day, a few drops of blood are taken from the tail of the mouse in order to determine the parasitemia by FACS (fluorescence-activated cell sorter) and to perform a blood smear. The parasitemia is first determined by FACS on 20 000 cells. The red blood cells taken for the FACS are fixed with glutaraldehyde and then labeled with a fluorochrome (YOYO1®) which labels DNA and therefore only the parasitized cells (Barkan, D., Ginsburg, H., and Golenser, J. 2000. Optimisation of flow cytometric measurement of parasitaemia in plasmodium-infected mice. Int. J. Parasitol. 30: 649-653). The parasitemias below 15% are subsequently recounted on smears. The smears are fixed with methanol and then stained with Giemsa stain. The number of parasitized blood cells is counted under a microscope. The parasitemia is expressed as percentage of infected erythrocytes present in the specimen, on a sample of 2000 cells. The ED50 and ED90 values are determined at D5. The parasitemia is determined from the 1st to the 10th day of treatment, and then at the 15th, 22nd and 47th days.
The curative dose is the dose of product which ensures the survival of the entire treated batch of animals after one month.
0% inhibition corresponds to the mean of the parasitemias observed in the nontreated, infected mice. 100% inhibition corresponds to a very weak or null parasitemia, below 0.01%. The ED50 values are determined by linear interpolation of the dose-response curve represented in logarithm of concentrations.

C[C@H]1[C@H](OC(=O)CCC(=O)O)O[C@@H]2O[C@@]3(C)CC[C@H]4[C@H](C)CC[C@@H]1[C@@]24OO3 [artesunate, reference compound]
parasitaemia D5 (Artesunate 2.5 mg/kg/d alone, ip D1-D4, D5): 53.20%
parasitaemia D1 (Artesunate 2.5 mg/kg/d alone, ip, D1 (first treatment day)): 7.00%
parasitaemia D2 (Artesunate 2.5 mg/kg/d alone, ip, D2 (24 h after first administration)): 32.90%
activity on the parasitemia at 4 days (artesunate 0.5 mg/kg/d): completely inactive
complete recovery after one month (artesunate alone 2.5 mg/kg/day): does not
effect on parasitemia on the first day and following days (artesunate alone, at the doses tested, ip (FIG. 1)): does not reduce the parasitemia
ED50 (dose giving 50% decrease in parasitaemia, ip once a day D1-D4, determined at D5, compound alone): >2.5 mg/kg/day
